Our source for the Ki values is ChEMBL document CHEMBL2385071, “Synthesis and biological investigation of coumarin piperazine (piperidine) derivatives as potential multireceptor atypical antipsychotics” (J Med Chem, 2013).

A word on the Ki: it is the dissociation constant of the complex between target and ligand, obtained from inhibition or displacement. The low end stands for tighter binding, the high end for weaker binding.

In assay [1] the target is 5-hydroxytryptamine receptor 2A (Rattus norvegicus, UniProt P14842). The assay is described as follows: Displacement of [3H]ketanserin from 5HT2A receptor in rat cerebral cortex after 15 mins by liquid scintillation counting analysis. In kind it is tissue-based. A general note: Displacement assays read how much labelled ligand stays bound in the presence of the test substance.

The target of the next assay is D(2) dopamine receptor (Rattus norvegicus, UniProt P61169).
Assay [2] has as its target T1, 5-hydroxytryptamine receptor 1A (Rattus norvegicus, UniProt P19327).
T1 sequence (P19327 whole entry): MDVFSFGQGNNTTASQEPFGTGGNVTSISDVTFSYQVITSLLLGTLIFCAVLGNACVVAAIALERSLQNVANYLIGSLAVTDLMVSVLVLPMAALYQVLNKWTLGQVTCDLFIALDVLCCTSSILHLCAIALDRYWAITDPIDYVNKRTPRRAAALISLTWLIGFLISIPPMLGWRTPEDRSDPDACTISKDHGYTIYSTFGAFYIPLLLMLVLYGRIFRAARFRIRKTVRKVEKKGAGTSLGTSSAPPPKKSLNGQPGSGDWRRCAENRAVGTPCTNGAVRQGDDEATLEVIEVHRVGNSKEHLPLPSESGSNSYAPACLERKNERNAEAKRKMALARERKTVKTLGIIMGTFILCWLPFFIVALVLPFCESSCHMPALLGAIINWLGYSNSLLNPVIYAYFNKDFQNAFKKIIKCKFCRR
The assay can be described thus: biochemical.
Description: Displacement of [3H]8-OH-DPAT from 5HT1A receptor in rat cerebral cortex after 30 mins by liquid scintillation counting analysis

Sequence of D(2) dopamine receptor (P61169 whole entry): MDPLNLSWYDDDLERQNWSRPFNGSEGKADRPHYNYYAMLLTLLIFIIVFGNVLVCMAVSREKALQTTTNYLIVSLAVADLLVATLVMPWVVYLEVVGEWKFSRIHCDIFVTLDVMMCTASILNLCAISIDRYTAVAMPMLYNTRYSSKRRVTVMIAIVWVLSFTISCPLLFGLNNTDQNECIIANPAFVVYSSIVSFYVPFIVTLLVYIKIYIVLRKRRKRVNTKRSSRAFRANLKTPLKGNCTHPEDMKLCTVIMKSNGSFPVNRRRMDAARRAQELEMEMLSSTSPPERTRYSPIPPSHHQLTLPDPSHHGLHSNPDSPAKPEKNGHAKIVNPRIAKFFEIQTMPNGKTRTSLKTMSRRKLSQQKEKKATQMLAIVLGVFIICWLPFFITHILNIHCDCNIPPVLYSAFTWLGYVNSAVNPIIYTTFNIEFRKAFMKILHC
Sequence of 5-hydroxytryptamine receptor 2A (P14842 whole entry): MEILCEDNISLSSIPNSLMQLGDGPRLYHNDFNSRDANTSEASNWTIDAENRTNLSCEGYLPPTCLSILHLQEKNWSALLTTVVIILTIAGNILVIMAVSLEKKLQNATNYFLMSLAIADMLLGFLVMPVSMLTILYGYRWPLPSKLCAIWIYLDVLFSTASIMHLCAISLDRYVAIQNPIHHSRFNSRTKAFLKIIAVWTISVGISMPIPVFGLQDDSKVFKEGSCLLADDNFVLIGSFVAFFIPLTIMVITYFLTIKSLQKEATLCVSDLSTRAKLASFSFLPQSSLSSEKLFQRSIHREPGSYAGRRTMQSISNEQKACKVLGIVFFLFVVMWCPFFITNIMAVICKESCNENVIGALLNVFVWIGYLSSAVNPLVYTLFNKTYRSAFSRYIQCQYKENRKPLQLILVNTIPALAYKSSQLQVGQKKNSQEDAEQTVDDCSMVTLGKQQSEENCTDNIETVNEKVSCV

As to `COc1ccccc1N1CCN(CCCCOc2ccc3c(-c4ccccc4)cc(=O)oc3c2)CC1`, the Ki (in assay [1]; on D(2) dopamine receptor; in assay [2]) was > 10000 nM each time.
For the compound `Cc1cc(=O)oc2cc(OC/C=C/CN3CCC(c4noc5cc(F)ccc45)CC3)ccc12`, the Ki in assay [1] amounted to 0.5 nM; on D(2) dopamine receptor it was 17.1 nM; in assay [2] it was 44.5 nM.
The corresponding values for `Cc1cc(=O)oc2cc(OCCCCN3CCN(c4cccc(C(F)(F)F)c4)CC3)ccc12` are 157 nM, 143 nM and 15.6 nM.
The corresponding values for `CCCc1cc(=O)oc2cc(OCCCCN3CCC(c4noc5cc(F)ccc45)CC3)ccc12` are 30.8 nM, 3.9 nM and 410 nM.
`O=c1cc(-c2cccs2)c2ccc(OCCCCN3CCC(c4noc5cc(F)ccc45)CC3)cc2o1`: the Ki was > 10000 nM in assay [1], 2350 nM at D(2) dopamine receptor and > 10000 nM in assay [2].
Consider `COc1ccccc1N1CCN(CCCCOc2ccc3c(C)c(C)c(=O)oc3c2)CC1`, for which the Ki was 58.9 nM in assay [1], > 10000 nM at D(2) dopamine receptor and > 10000 nM in assay [2].
In the case of `COc1ccccc1N1CCN(CCCCOc2ccc3ccc(=O)oc3c2)CC1`, the figures for the Ki (in assay [1]; at D(2) dopamine receptor; in assay [2]) were 1680 nM, 569 nM and 876 nM, respectively.
The corresponding values for `COc1cccc(-c2cc(=O)oc3cc(OCCCCN4CCC(c5noc6cc(F)ccc56)CC4)ccc23)c1` are > 10000 nM, 787 nM and > 10000 nM.
The corresponding values for `Cc1cccc(N2CCN(CCCCOc3ccc4c(C)cc(=O)oc4c3)CC2)c1C` are 259 nM, 1390 nM and 48.4 nM.
The corresponding values for `Cc1cc(=O)oc2cc(OCCCCN3CCN(c4ccccn4)CC3)ccc12` are 897 nM, 2820 nM and 102 nM.
As to `Cc1c(C)c2ccc(OCCCCN3CCC(c4noc5cc(F)ccc45)CC3)c(C)c2oc1=O`, the Ki in assay [1] is 607 nM; at D(2) dopamine receptor, 10.7 nM; in assay [2] it was 3070 nM.
As to `CC(C)c1cc(=O)oc2cc(OCCCCN3CCC(c4noc5cc(F)ccc45)CC3)ccc12`, the Ki in assay [1] is > 10000 nM; at D(2) dopamine receptor it was 2350 nM; in assay [2], > 10000 nM.
Take `COc1ccc(N2CCN(CCCCOc3ccc4c(C)cc(=O)oc4c3)CC2)cc1`: the results for the Ki (in assay [1]; at D(2) dopamine receptor; in assay [2]) were 1010 nM, 412 nM and 530 nM, respectively.
The matching figures for `Cc1cc(=O)oc2cc(OCCCCN3CCC(C(=O)c4ccc(F)cc4)CC3)ccc12`: 257 nM, 182 nM and 165 nM.
The corresponding values for `O=c1cc(C2CC2)c2ccc(OCCCCN3CCC(c4noc5cc(F)ccc45)CC3)cc2o1` are > 10000 nM, > 10000 nM and > 10000 nM.
As to `O=c1cc(CO)c2ccc(OCCCCN3CCC(c4noc5cc(F)ccc45)CC3)cc2o1`, the results for the Ki (in assay [1]; at D(2) dopamine receptor; in assay [2]) were > 10000 nM, > 10000 nM and 2160 nM, respectively.
Regarding `COc1ccccc1N1CCN(CCCCOc2ccc3c(CO)cc(=O)oc3c2)CC1`, the Ki (in assay [1]; on D(2) dopamine receptor; in assay [2]) was > 10000 nM in each case.
On to `COc1ccccc1N1CCN(CCCCOc2ccc3c(C)cc(=O)oc3c2C)CC1`, for which the figures for the Ki (in assay [1]; on D(2) dopamine receptor; in assay [2]) were 941 nM, 844 nM and 112 nM, respectively.
The corresponding values for `Cc1cc(=O)oc2cc(OCCCCN3CCC(c4noc5cc(F)ccc45)CC3)c(Cl)cc12` are 10.6 nM, > 10000 nM and 17.2 nM.
The corresponding values for `Cc1ccc(S(=O)(=O)N2CCN(CCCCOc3ccc4c(C)cc(=O)oc4c3)CC2)cc1` are > 10000 nM, 1590 nM and 1200 nM.
With `Cc1cc(=O)oc2cc(OCCCCN3CCN(c4cccc(Cl)c4Cl)CC3)ccc12`, the values for the inhibition constant Ki (in assay [1]; at D(2) dopamine receptor; in assay [2]) were 101 nM, 1870 nM and 11.5 nM, respectively.
